Data: US20260007681A1, “INDOLE DERIVATIVES AS ESTROGEN RECEPTOR DEGRADERS” (REGENTS OF THE UNIVERSITY OF MICHIGAN, priority 2022, published 2026)
Read-outs that look alike come from different tables or passages of the source.

How the values were obtained:
ER = ER (Homo sapiens (Human), UniProt P03372); test: In-cell western blot analysis of relative ER percentage (Compounds B1-B278); assay type: cell-based; conditions: ER degradation, 16 hours, read-out: ICW DC50
Procedure, shortened: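 In-cell western: after 16 h compound exposure (0.5% DMSO final), fixed and permeabilized cells are probed with anti-ER plus anti-GAPDH and near-infrared secondaries. Relative ER percentage compares treated wells against untreated and DMSO wells taken as 100%; seeding 40,000 or 10,000 cells/well.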

[1] = Cell growth assay (WST-8) (Compounds B1-B278); assay type: cell-based; conditions: T47D cell line, WST-8, 4 days, read-out: Cell Growth Inhibition in T47D cell line IC50
Procedure, shortened: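 Read-out is WST-8 absorbance at 450 nm (2.5 h, 37° C) as a fraction of vehicle control, from three separate repeats. Compound exposure lasted 4 days, starting one day after plating 1500 cells/well.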

Sequence of ER (P03372 whole entry): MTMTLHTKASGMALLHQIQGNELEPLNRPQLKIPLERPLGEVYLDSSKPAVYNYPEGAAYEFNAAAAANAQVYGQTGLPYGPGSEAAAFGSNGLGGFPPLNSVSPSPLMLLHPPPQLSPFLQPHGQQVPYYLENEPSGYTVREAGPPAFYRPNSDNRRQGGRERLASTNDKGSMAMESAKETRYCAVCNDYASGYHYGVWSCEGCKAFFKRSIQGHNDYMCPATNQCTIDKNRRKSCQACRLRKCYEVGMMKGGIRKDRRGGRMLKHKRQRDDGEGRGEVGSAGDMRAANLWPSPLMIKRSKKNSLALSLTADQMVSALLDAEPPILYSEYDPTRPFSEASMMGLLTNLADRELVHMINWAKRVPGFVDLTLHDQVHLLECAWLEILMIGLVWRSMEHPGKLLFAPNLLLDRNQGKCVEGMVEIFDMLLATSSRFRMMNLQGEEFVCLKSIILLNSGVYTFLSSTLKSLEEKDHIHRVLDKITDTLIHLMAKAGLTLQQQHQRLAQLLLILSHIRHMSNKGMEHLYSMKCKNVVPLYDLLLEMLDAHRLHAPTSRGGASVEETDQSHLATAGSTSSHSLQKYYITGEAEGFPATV

| DC50 (ER) [nM] | SMILES | IC50 [1] [nM] | IC50 ([1]; 96 h) [nM] |
| --- | --- | --- | --- |
| < 10 | COc1cc(N2CCC3(CC2)CC(CN2CCN4c5ccc6c(c5OC[C@H]4C2)CN(C2CCC(=O)NC2=O)C6=O)CO3)ccc1[C@@H]1c2[nH]c3ccccc3c2C[C@@H](C)N1CC(F)F (stereo partly drawn) [Compound B144, (3S)-3-((5aR)-7-((8-(4-((1R,3R)-2-(2,2-difluoroethyl)-3-methyl-2,3,4,9-tetrahydro-1H-pyrido[3,4-b]indol-1-yl)-3-methoxyphenyl)-1-oxa-8-azaspiro[4.5]dccan-3-yl)methyl)-1-oxo-1,3,5,5a,6,7,8,9-octahydro-2H-pyrazino[1′,2′:4,5][1,4]oxazino[2,3-e]isoindol-2-yl)piperidine-2,6-dione] | < 1 |  |
| 10 to 100 | COc1c2c(cc3c1CN(C1CCC(=O)NC1=O)C3=O)CN(CC(=O)N1CCC3(CC1)CCN(c1cc(F)c([C@@H]4c5[nH]c6ccccc6c5C[C@@H](C)N4CC(F)F)c(F)c1)CC3)C2 (stereo partly drawn) [Compound B130, 3-(6-(2-(9-(4-((1R,3R)-2-(2,2-difluoroethyl)-3-methyl-2,3,4,9-tetrahydro-1H-pyrido[3,4-b]indol-1-yl)-3,5-difluorophenyl)-3,9-diazaspiro[5.5]undecan-3-yl)-2-oxoethyl)-4-methoxy-1-oxo-3,5,6,7-tetrahydropyrrolo[3,4-f]isoindol-2(1H)-yl)piperidine-2,6-dione] |  | 1 to 10 |
| 10 to 100 | C[C@@H]1Cc2c([nH]c3ccccc23)[C@@H](c2cnc(N3CCC4(CC3)CC(CN3CCN5c6ccc7c(c6OC[C@H]5C3)CN(C3CCC(=O)NC3=O)C7=O)C4)nc2)N1CC1(F)CC1 (stereo partly drawn) [Compound B261, 3-((R)-7-((7-(5-((1R,3R)-2-((1-fluorocyclopropyl)methyl)-3-methyl-2,3,4,9-tetrahydro-1H-pyrido[3,4-b]indol-1-yl)pyrimidin-2-yl)-7-azaspiro[3.5]nonan-2-yl)methyl)-1-oxo-1,3,5,5a,6,7,8,9-octahydro-2H-pyrazino[1′,2′:4,5][1,4]oxazino[2,3-e]isoindol-2-yl)piperidine-2,6-dione] |  | 1 to 10 |
| 10 to 100 | C[C@@H]1Cc2c([nH]c3ccccc23)[C@@H](c2cnc(N3CCC4(CCC(CN5CCN6c7cc8c(cc7OC[C@@H]6C5)C(=O)N(C5CCC(=O)NC5=O)C8)CC4)CC3)nc2)N1CC(F)F (stereo partly drawn) [Compound B136, 3-((S)-3-((3-(5-((1R,3R)-2-(2,2-difluoroethyl)-3-methyl-2,3,4,9-tetrahydro-1H-pyrido[3,4-b]indol-1-yl)pyrimidin-2-yl)-3-azaspiro[5.5]undecan-9-yl)methyl)-8-oxo-1,2,3,4,4a,5,8,10-octahydro-9H-pyrazino[1′,2′:4,5][1,4]oxazino[2,3-f]isoindol-9-yl)piperidine-2,6-dione] |  | > 10 |
| > 100 | C[C@@H]1Cc2c([nH]c3ccccc23)[C@@H](c2cnc(N3CC4(CCC(CN5Cc6cc7c(cc6C5)C(=O)N(C5CCC(=O)NC5=O)C7=O)CC4)C3)nc2)N1CC(F)(F)CO (stereo partly drawn) [Compound B167, 6-((2-(5-((1R,3R)-2-(2,2-difluoro-3-hydroxypropyl)-3-methyl-2,3,4,9-tetrahydro-1H-pyrido[3,4-b]indol-1-yl)pyrimidin-2-yl)-2-azaspiro[3.5]nonan-7-yl)methyl)-2-(2,6-dioxopiperidin-3-yl)-6,7-dihydropyrrolo[3,4-f]isoindole-1,3(2H,5H)-dione] |  | > 10 |
| > 100 | C[C@@H]1Cc2c([nH]c3ccccc23)[C@@H](c2cnc(N3CC4(C3)OCC(CN3CCN5c6cc7c(cc6OC[C@@H]5C3)C(=O)N(C3CCC(=O)NC3=O)C7)CO4)nc2)N1CC(F)(F)CO (stereo partly drawn) [Compound B276, 3-((S)-3-((2-(5-((1R,3R)-2-(2,2-difluoro-3-hydroxypropyl)-3-methyl-2,3,4,9-tetrahydro-1H-pyrido[3,4-b]indol-1-yl)pyrimidin-2-yl)-5,9-dioxa-2-azaspiro[3.5]nonan-7-yl)methyl)-8-oxo-1,2,3,4,4a,5,8,10-octahydro-9H-pyrazino[1′,2′:4,5][1,4]oxazino[2,3-f]isoindol-9-yl)piperidine-2,6-dione] |  | > 10 |
| 10 to 100 | C[C@@H]1Cc2c([nH]c3ccccc23)[C@@H](c2cnc(N3CC4(CC(CN5CCN6c7ccc8c(c7OC[C@H]6C5)CN(C5CCC(=O)NC5=O)C8=O)C4)C3)nc2)N1CC(C)(F)F (stereo partly drawn) [Compound B178, 3-((R)-7-((2-(5-((1R,3R)-2-(2,2-difluoropropyl)-3-methyl-2,3,4,9-tetrahydro-1H-pyrido[3,4-b]indol-1-yl)pyrimidin-2-yl)-2-azaspiro[3.3]heptan-6-yl)methyl)-1-oxo-1,3,5,5a,6,7,8,9-octahydro-2H-pyrazino[1′,2′:4,5][1,4]oxazino[2,3-e]isoindol-2-yl)piperidine-2,6-dione] |  | 1 to 10 |
| > 100 | C[C@@H]1Cc2c([nH]c3ccccc23)[C@@H](c2cnc(N3CC4(CCC(N5CCN6c7ccc8c(c7OC[C@H]6C5)CN(C5CCC(=O)NC5=O)C8=O)CC4)C3)nc2)N1CC(F)(F)CO (stereo partly drawn) [Compound B158, 3-((R)-7-(2-(5-((1R,3R)-2-(2,2-difluoro-3-hydroxypropyl)-3-methyl-2,3,4,9-tetrahydro-1H-pyrido[3,4-b]indol-1-yl)pyrimidin-2-yl)-2-azaspiro[3.5]nonan-7-yl)-1-oxo-1,3,5,5a,6,7,8,9-octahydro-2H-pyrazino[1′,2′:4,5][1,4]oxazino[2,3-e]isoindol-2-yl)piperidine-2,6-dione] |  | < 1 |
| 10 to 100 | C[C@@H]1Cc2c([nH]c3ccccc23)[C@@H](c2cnc(N3CCC(CN4CCN5c6ccc7c(c6OC[C@H]5C4)CN(C4CCC(=O)NC4=O)C7=O)CC3)nc2)N1CC(F)F (mixture of isomers) [Compound B254, 3-((RS)-7-((1-(5-((1R,3R)-2-(2,2-difluoroethyl)-3-methyl-2,3,4,9-tetrahydro-1H-pyrido[3,4-b]indol-1-yl)pyrimidin-2-yl)piperidin-4-yl)methyl)-1-oxo-1,3,5,5a,6,7,8,9-octahydro-2H-pyrazino[1′,2′:4,5][1,4]oxazino[2,3-e]isoindol-2-yl)piperidine-2,6-dione] |  | < 1 |
| 10 to 100 | COc1cc(N2CCC3(CC2)CC(CN2CCN4c5cc6c(cc5OC[C@@H]4C2)C(=O)N(C2CCC(=O)NC2=O)C6)CO3)ccc1[C@@H]1c2[nH]c3ccccc3c2C[C@@H](C)N1CC(F)F (stereo partly drawn) [Compound B142, 3-((4aS)-3-((8-(4-((1R,3R)-2-(2,2-difluoroethyl)-3-methyl-2,3,4,9-tetrahydro-1H-pyrido[3,4-b]indol-1-yl)-3-methoxyphenyl)-1-oxa-8-azaspiro[4.5]decan-3-yl)methyl)-8-oxo-1,2,3,4,4a,5,8,10-octahydro-9H-pyrazino[1′,2′:4,5][1,4]oxazino[2,3-f]isoindol-9-yl)piperidine-2,6-dione] |  | < 1 |
| > 100 | C[C@@H]1Cc2c([nH]c3ccccc23)[C@@H](c2cnc(N3CC4(C3)OCC(CN3CCN5c6ccc7c(c6OC[C@H]5C3)CN([C@H]3CCC(=O)NC3=O)C7=O)CO4)nc2)N1CC(F)(F)CO [Compound B275, (S)-3-((R)-7-((2-(5-((1R,3R)-2-(2,2-difluoro-3-hydroxypropyl)-3-methyl-2,3,4,9-tetrahydro-1H-pyrido[3,4-b]indol-1-yl)pyrimidin-2-yl)-5,9-dioxa-2-azaspiro[3.5]nonan-7-yl)methyl)-1-oxo-1,3,5,5a,6,7,8,9-octahydro-2H-pyrazino[1′,2′:4,5][1,4]oxazino[2,3-e]isoindol-2-yl)piperidine-2,6-dione] |  | > 10 |
| 10 to 100 | C[C@@H]1Cc2c([nH]c3ccccc23)[C@@H](c2ccc(N3CCC4(CC3)CC(CN3CCN5c6cc7c(cc6OC[C@@H]5C3)C(=O)N(C3CCC(=O)NC3=O)C7)CO4)cn2)N1CC(F)(F)F (stereo partly drawn) [Compound B147, 3-((4aS)-3-((8-(6-((1S,3R)-3-methyl-2-(2,2,2-trifluoroethyl)-2,3,4,9-tetrahydro-1H-pyrido[3,4-b]indol-1-yl)pyridin-3-yl)-1-oxa-8-azaspiro[4.5]dccan-3-yl)methyl)-8-oxo-1,2,3,4,4a,5,8,10-octahydro-9H-pyrazino[1′,2′:4,5][1,4]oxazino[2,3-f]isoindol-9-yl)piperidine-2,6-dione] |  | 1 to 10 |

| SMILES | DC50 (ER) [nM] | IC50 [1] [nM] | IC50 ([1]; 96 h) [nM] |
| --- | --- | --- | --- |
| C[C@@H]1Cc2c([nH]c3ccccc23)[C@@H](c2cnc(N3CCC(CN4CCC5(CCOc6c5ccc5c6CN(C6CCC(=O)NC6=O)C5=O)CC4)CC3)nc2)N1CC(F)F (stereo partly drawn) [Compound B127, 3-(1-((1-(5-((1R,3R)-2-(2,2-difluoroethyl)-3-methyl-2,3,4,9-tetrahydro-1H-pyrido[3,4-b]indol-1-yl)pyrimidin-2-yl)piperidin-4-yl)methyl)-7′-oxo-2′,3′,7′,9′-tetrahydro-8′H-spiro[piperidine-4,4′-pyrano[2,3-e]isoindol]-8′-yl)piperidine-2,6-dione] | 10 to 100 |  | 1 to 10 |
| C[C@@H]1Cc2c([nH]c3ccccc23)[C@@H](c2cnc(N3CCC4(CC3)CC(CN3CCN5c6ccc7c(c6OC[C@@H]5C3)CN(C3CCC(=O)NC3=O)C7=O)C4)nc2)N1CC(F)F (stereo partly drawn) [Compound B264, 3-((S)-7-((7-(5-((1R,3R)-2-(2,2-difluoroethyl)-3-methyl-2,3,4,9-tetrahydro-1H-pyrido[3,4-b]indol-1-yl)pyrimidin-2-yl)-7-azaspiro[3.5]nonan-2-yl)methyl)-1-oxo-1,3,5,5a,6,7,8,9-octahydro-2H-pyrazino[1′,2′:4,5][1,4]oxazino[2,3-e]isoindol-2-yl)piperidine-2,6-dione] | 10 to 100 |  | 1 to 10 |
